Test results taken from patent US12059425B2, “Heterocyclic compounds and uses thereof” (Kumquat Biosciences Inc., priority 2022, dated 2024).

Legend:
A549 cells = assay: Ras cellular assay, cell proliferation A549; type: cell-based; conditions: Homo sapiens
Description: (§1) For example, this assay can be also used to assess selective growth inhibition of a mutant Ras protein relative to a wildtype, or relative to a different mutant Ras protein.
A549 (ATCC CRL-185) and LS123 (ATCC CRL-255) cell lines comprise a G12S mutation and can be used to assess Ras cellular signaling in vitro, e.g., in response to treatment with a compound described herein. A549 culture medium is prepared with RPMI-1640 and 10% heat-inactivated FBS. LS123 culture medium is prepared with RPMI-1640 and 10% heat-inactivated FBS. A CellTiter-Glo (CTG) luminescent based assay (Promega) is used to assess growth of the cells, as a measurement of the ability of the compounds herein to inhibit Ras signaling in the cells. The cells (e.g., 800 per well) are seeded in their respective culture medium in standard tissue culture-treated 384-well format plates (Falcon #08-772-116) or ultra-low attachment surface 384-well format plates (S-Bio #MS-9384WZ). The day after plating, cells are treated with a dilution series (e.g., a 10 point, 3-fold dilution series) of the compounds herein (e.g., approximately 40 μL final volume per well). Cell viability can be monitored (e.g., approximately 6 days later) according to the manufacturer's recommended instructions, where CellTiter-Glo reagent is added (e.g., approximately 10 μL), vigorously mixed, covered, and placed on a plate shaker (e.g., approximately for 20 min) to ensure sufficient cell lysis prior to assessment of luminescent signal. The IC50 values are determined using the four parameter fit. The resulting IC50 value is a measurement of the ability of the test compound to reduce cell growth of Ras-driven cells (e.g., tumor cell lines) in vitro and/or in vivo.

wildtype K-Ras = target: T1, wildtype K-Ras (Homo sapiens, UniProt P01116); assay: PPI-HTRF assay, wildtype K-Ras / SOS1 interaction; type: biochemical; conditions: HTRF, K-Ras wt; read-out: PPI-HTRF-5 nM (K-Ras wt IC50)
T1 construct: made in house; host or cells: E. coli, e.g. BL21 (DE3)
In short: (§2)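 GST-tagged K-Ras (WT or mutant) bound to anti-GST-Eu was mixed with His-hSOS1 bound to anti-6His-XL665 in pH 7.4 HEPES/NaCl/DTT/BSA/Igepal buffer. After ~10 min or longer, HTRF was read (ex 337 nm, em 620/665 nm). IC50 was derived from the 665/620 ratio, with duplicates tested from 10 μM down to 0.01 μM.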

K-Ras G12V = target: T2, K-Ras G12V (Homo sapiens, UniProt P01116, G12V); assay: PPI-HTRF assay, K-Ras G12V / SOS1 interaction; type: biochemical; conditions: HTRF, K-Ras G12V; read-out: PPI-HTRF-5 nM (K-Ras G12V IC50)
T2 construct: made in house; host or cells: E. coli, e.g. BL21 (DE3)
In short: as §2

SW620 cells = assay: Ras cellular assay, cell proliferation SW620; type: cell-based; conditions: Homo sapiens, SW-620
Excerpt: as §1

GP2D cells = assay: Ras cellular assay, cell proliferation GP2D; type: cell-based
Description: as §1
ASPC-1 (ATCC CRL-1682), Panc-10.05 (ATCC CRL-2547), A427, GP2d cell lines or any other cell lines comprising a G12D mutation can be used to assess Ras cellular signaling in vitro, e.g., in response to a compound described herein. For example, ASPC-1 culture medium is prepared with RPMI-1640 and 10% heat-inactivated FBS. Panc-10.05 culture medium is prepared with RPMI-1640, 10 Units/mL human recombinant insulin, and 10% FBS. A427 cell culture is prepared with RPMI-1640 and 10% heat-inactivated FBS. A CellTiter-Glo (CTG) luminescent based assay (Promega) is used to assess growth of the cells, as a measurement of the ability of the compounds herein to inhibit Ras signaling in the cells. The cells (e.g., 800 per well) are seeded in their respective culture medium in standard tissue culture-treated 384-well format plates (Falcon #08-772-116) or ultra-low attachment surface 384-well format plates (S-Bio #MS-9384UZ). The day after plating, cells are treated with a dilution series (e.g., a 9 point 3-fold dilution series) of the compounds herein (e.g., approximately 40 μL final volume per well). Cell viability can be monitored (e.g., approximately 5 days later) according to the manufacturer's recommended instructions, where the CellTiter-Glo reagent is added (e.g., approximately 10 μL), vigorously mixed, covered, and placed on a plate shaker (e.g., approximately for 20 min) to ensure sufficient cell lysis prior to assessment of luminescent signal. The IC50 values are determined using the four parameter fit. The resulting IC50 value is a measurement of the ability of the test compound to reduce cell growth of Ras-driven cells (e.g., tumor cell lines) in vitro and/or in vivo.

K-Ras G12D = target: T3, K-Ras G12D (Homo sapiens, UniProt P01116, G12D); assay: PPI-HTRF assay, K-Ras G12D / SOS1 interaction; type: biochemical; conditions: HTRF, K-Ras G12D; read-out: PPI-HTRF-5 nM (K-Ras G12D IC50)
T3 construct: made in house; host or cells: E. coli, e.g. BL21 (DE3)
In short: as §2

K-Ras G12S = target: T4, K-Ras G12S (Homo sapiens, UniProt P01116, G12S); assay: PPI-HTRF assay, K-Ras G12S / SOS1 interaction; type: biochemical; conditions: read-out: PPI-HTRF-5 nM (K-Ras G12S IC50)
T4 construct: made in house; host or cells: E. coli, e.g. BL21 (DE3)
In short: as §2

T2 sequence (P01116 1-188 isoform P01116-2 G12V): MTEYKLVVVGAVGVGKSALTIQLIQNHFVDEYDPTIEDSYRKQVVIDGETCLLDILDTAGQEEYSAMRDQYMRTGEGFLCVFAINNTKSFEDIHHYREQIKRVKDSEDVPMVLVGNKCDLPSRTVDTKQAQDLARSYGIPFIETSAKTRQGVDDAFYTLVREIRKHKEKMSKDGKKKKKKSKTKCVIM
T1 sequence (P01116 1-188 isoform P01116-2): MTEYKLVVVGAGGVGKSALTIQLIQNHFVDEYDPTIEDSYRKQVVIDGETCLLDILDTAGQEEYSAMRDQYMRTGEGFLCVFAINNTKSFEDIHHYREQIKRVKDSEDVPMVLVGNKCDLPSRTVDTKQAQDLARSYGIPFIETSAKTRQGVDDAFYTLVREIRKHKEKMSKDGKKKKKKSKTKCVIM
T3 sequence (P01116 1-188 isoform P01116-2 G12D): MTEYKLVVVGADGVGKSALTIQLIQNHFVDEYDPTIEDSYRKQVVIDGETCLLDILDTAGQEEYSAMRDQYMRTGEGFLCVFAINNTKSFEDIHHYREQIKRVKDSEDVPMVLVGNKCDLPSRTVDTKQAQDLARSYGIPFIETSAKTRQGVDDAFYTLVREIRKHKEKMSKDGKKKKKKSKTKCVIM
T4 sequence (P01116 1-188 isoform P01116-2 G12S): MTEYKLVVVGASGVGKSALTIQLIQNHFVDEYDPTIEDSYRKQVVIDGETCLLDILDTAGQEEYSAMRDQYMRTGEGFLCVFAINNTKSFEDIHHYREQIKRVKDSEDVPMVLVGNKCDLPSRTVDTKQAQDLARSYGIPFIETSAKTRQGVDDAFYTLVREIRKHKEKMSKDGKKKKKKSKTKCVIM

IC50 (A549 cells) [µM]	IC50 (wildtype K-Ras) [µM]	IC50 (K-Ras G12V) [µM]	IC50 (SW620 cells) [µM]	IC50 (K-Ras G12D) [µM]	IC50 (K-Ras G12S) [µM]	Compound	IC50 (GP2D cells) [µM]
< 5	< 5	< 5	< 5	< 5	< 5	N#Cc1c(N)sc2c(F)ccc(-c3c(Cl)c4c5c(nc(OC[C@@]67CCCN6C[C@H](F)C7)nc5c3F)N(C3CC3)C3COCC3CO4)c12 (stereo partly drawn) [compound 125, 2-amino-4-(6-chloro-12-cyclopropyl-4-fluoro-2-(((2R,7aS)-2-fluorotetrahydro-1H-pyrrolizin-7a(5H)-yl)methoxy)-8a,9,11a,12-tetrahydro-8H,11H-furo[3′,4′:6,7][1,5]oxazocino[4,3,2-de]quinazolin-5-yl)-7-fluorobenzo[b]thiophene-3-carbonitrile]	< 5
< 5	< 5	< 5	< 5	< 5	< 5	N#Cc1c(N)sc2c(F)ccc(-c3c(Cl)c4c5c(nc(OC[C@@]67CCCN6C[C@H](F)C7)nc5c3F)N(CC(F)F)C3CNCC3O4)c12 (stereo partly drawn) [compound 175, 2-amino-4-(6-chloro-11-(2,2-difluoroethyl)-4-fluoro-2-(((2R,7aS)-2-fluorotetrahydro-1H-pyrrolizin-7a(5H)-yl)methoxy)-7a,8,9,10,10a,11-hexahydropyrrolo[3′,4′:2,3][1,4]oxazepino [5,6,7-de]quinazolin-5-yl)-7-fluorobenzo[b]thiophene-3-carbonitrile]	< 5
< 5	< 5	< 5	< 5	< 5	< 5	N#CCC1CN2c3nc(OC[C@@]45CCCN4C[C@H](F)C5)nc4c(F)c(-c5ccc(F)c6sc(N)c(C#N)c56)c(Cl)c(c34)OCCC12 (stereo partly drawn) [compound 114, 2-amino-4-(9-chloro-1-(cyanomethyl)-7-fluoro-5-(((2R,7aS)-2-fluorotetrahydro-1H-pyrrolizin-7a(5H)-yl)methoxy)-1,11,12,12a-tetrahydro-2H-azeto[1′,2′:5,6][1,5]oxazocino[4,3,2-de]quinazolin-8-yl)-7-fluorobenzo[b]thiophene-3-carbonitrile]	< 5
< 5	< 5	< 5	< 5	< 5	< 5	N#Cc1c(N)sc2c(F)ccc(-c3c(Cl)c4c5c(nc(OC[C@@]67CCCN6C[C@H](F)C7)nc5c3F)N3CC[C@H]3CCO4)c12 [compound 207, 2-amino-4-((12aS)-9-chloro-7-fluoro-5-(((2R,7aS)-2-fluorotetrahydro-1H-pyrrolizin-7a(5H)-yl)methoxy)-1,11,12,12a-tetrahydro-2H-azeto[11,2′:5,6][1,5]oxazocino[4,3,2-de]quinazolin-8-yl)-7-fluorobenzo[b]thiophene-3-carbonitrile]	< 5
< 5	< 5	< 5	< 5	< 5	< 5	N#Cc1c(N)sc2c(F)ccc(-c3c(Cl)c4c5c(nc(OC[C@@]67CCCN6C[C@H](F)C7)nc5c3F)N3C(CCCC3C(F)F)CO4)c12 (stereo partly drawn) [compound 189, 2-amino-4-(6-chloro-12-(difluoromethyl)-4-fluoro-2-(((2R,7aS)-2-fluorotetrahydro-1H-pyrrolizin-7a(5H)-yl)methoxy)-8,8a,9,10,11,12-hexahydropyrido[2′,1′:3,4][1,4]oxazepino [5,6,7-de]quinazolin-5-yl)-7-fluorobenzo[b]thiophene-3-carbonitrile]	< 5
> 5	< 5	< 5	< 5	–	< 5	CN1c2nc(OC[C@@]34CCCN3C[C@H](F)C4)nc3c(F)c(-c4ccc(F)c5sc(N)c(C#N)c45)c(Cl)c(c23)OCC2CCCC21 (stereo partly drawn) [compound 110, 2-amino-4-(6-chloro-4-fluoro-2-(((2R,7aS)-2-fluorotetrahydro-1H-pyrrolizin-7a(5H)-yl)methoxy)-12-methyl-8a,9,10,11,11a,12-hexahydro-8H-cyclopenta[6,7][1,5]oxazocino[4,3,2-de]quinazolin-5-yl)-7-fluorobenzo[b]thiophene-3-carbonitrile]	> 5
< 5	< 5	< 5	< 5	< 5	< 5	N#Cc1c(N)sc2c(F)ccc(-c3c(Cl)c4c5c(nc(OC[C@@]67CCCN6C[C@H](F)C7)nc5c3F)N3CCC[C@@H]3CCO4)c12 [compound 143, 2-amino-4-((13aR)-10-chloro-8-fluoro-6-(((2R,7aS)-2-fluorotetrahydro-1H-pyrrolizin-7a(5H)-yl)methoxy)-1,2,3,12,13,13a-hexahydropyrrolo[1′,2′:5,6][1,5]oxazocino [4,3,2-de]quinazolin-9-yl)-7-fluorobenzo[b]thiophene-3-carbonitrile]	–
< 5	< 5	< 5	< 5	< 5	< 5	N#CCC1CCN2c3nc(OC[C@@]45CCCN4C[C@H](F)C5)nc4c(F)c(-c5ccc(F)c6sc(N)c(C#N)c56)c(Cl)c(c34)OCC2C1 (single isomer, unassigned) [compound 156]	–
< 5	< 5	< 5	< 5	–	< 5	N#Cc1c(N)sc2c(F)ccc(-c3c(Cl)c4c5c(nc(OC[C@@]67CCCN6C[C@H](F)C7)nc5c3F)N3CC5(CCN5C(=O)n5cncn5)CC3CO4)c12 (stereo partly drawn) [compound 131, 2-Amino-4-(10′-chloro-8′-fluoro-6′-(((2R,7aS)-2-fluorotetrahydro-1H-pyrrolizin-7a(5H)-yl)methoxy)-1-(1H-1,2,4-triazole-1-carbonyl)-12′,12a′-dihydro-1′H,3′H-spiro[azetidine-2,2′-pyrrolo[2′,1′:3,4][1,4]oxazepino[5,6,7-de]quinazolin]-9′-yl)-7-fluorobenzo[b]thiophene-3-carbonitrile]	–

Compound	IC50 (A549 cells) [µM]	IC50 (wildtype K-Ras) [µM]	IC50 (K-Ras G12V) [µM]	IC50 (SW620 cells) [µM]	IC50 (K-Ras G12D) [µM]	IC50 (K-Ras G12S) [µM]	IC50 (GP2D cells) [µM]
CN1c2nc(OC[C@@]34CCCN3C[C@H](F)C4)nc3c(F)c(-c4ccc(F)c5sc(N)c(C#N)c45)c(Cl)c(c23)OCC2CN(C(=O)[C@@H]3N[C@H]3C3CC3)CC21 (stereo partly drawn) [compound 146, 2-amino-4-(6-chloro-10-((2R,3S)-3-cyclopropylaziridine-2-carbonyl)-4-fluoro-2-(((2R,7aS)-2-fluorotetrahydro-1H-pyrrolizin-7a(5H)-yl)methoxy)-12-methyl-8a,9,10,11,11a,12-hexahydro-8H-pyrrolo[3′,4′:6,7][1,5]oxazocino[4,3,2-de]quinazolin-5-yl)-7-fluorobenzo[b]thiophene-3-carbonitrile]	> 5	< 5	< 5	< 5	< 5	< 5	< 5
